Source: patent US4016287A, “Dermatological compositions containing an acylamino-carboxylic acid or an alkyl ester thereof” (Boehringer Ingelheim GmbH, priority 1975, dated 1977)

Legend:
[1] = system: sebaceous gland excretion; experiment: sebaceous gland excretion-inhibiting activity, glass block method (refatting of forehead skin); assay type: in vivo, human; conditions: ethanolic 5% solution, 0.25 ml on half of forehead; for Average extinction values, Difference: difference between treated and controls (ethanol); for Average extinction values, Treated: skin fat removed after 90 minutes, refatting measured after three additional hours, treated group
Protocol: The sebaceous gland excretion-inhibiting activity was ascertained by the glass block method described by Schaefer and Kuhn-Bussius in Arch. Klin. exper. Derm. 238, 429-435 (1970). Small glass blocks, the facets of which have been roughened or frosted, are pressed against the skin surface where the amount of skin fat is measured. The skin fat or sebum transferred from the skin to the glass facet makes the blocks more translucent, and the increase in translucence is directly proportional to the amount of sebum present in the skin area. The translucence is measured in a photometer. Prior to measurement of the degree of refating of the skin, the skin fat was removed with a plastic foil.
0.25 ml of an ethanolic 5% solution of the compound to be tested was applied to half of the forehead of 5 to 10 human test subjects, while 0.25 ml of ethanol was applied to half of the forehead of a group of 5 to 10 control subjects. After 90 minutes the skin fat was removed with the plastic foil, and after three additional hours the degree of refatting was determining with the aid of the small glass blocks referred to above.

[2] = system: dinitrochlorobenzene-eczema; experiment: antiphlogistic activity, dinitrochlorobenzene-eczema method; assay type: in vivo, guinea pigs; conditions: Cavia porcellus, topical; ethanolic 5% solution on shaved flanks, 30 minutes before 1% dinitrochlorobenzene; visual evaluation after 22 hours; read-out: Inhibition of dinitrochlorobenzene-eczema over control
Protocol: The antiphlogistic activity was ascertained by the dinitrochlorobenzene-eczema method [see A. I. Scott, Brit. J. Dermatol. 77, 586 (1965)].
The compound to be tested was applied in the form of an ethanolic 5% solution to the shaved flanks of a group of 10 guinea pigs which has been sensitized with dinitrochlorobenzene. An analogous control group was treated with only ethanol. The treatment was effected 30 minutes prior to release of the allergic reaction with a 1% solution of dinitrochlorobenzene in acetone. The results were visually evaluated 22 hours thereafter.

[3] = acute toxicity, LD50 mouse i.p.; conditions: in vivo, ip

| SMILES | Average extinction values, Difference [1] | Average extinction values, Treated [1] | inhibition in vivo at 5 % [2] [%] | LD50 [3] [mg/kg] |
| --- | --- | --- | --- | --- |
| CCCCCCCCCCCCCCCCOC(=O)CNC(C)=O [A, n-acetyl-glycine hexadecyl ester] | 9.5 | 75.5 | 46 | – |
| CCCCCCCCCCCCCCCCOC(=O)C(C)NC(C)=O (stereo not drawn) [B, n-acetyl-alanine hexadecyl ester] | 7.5 | 74.0 | 19 | – |
| CCCCCCCCCCCCCCCCOC(=O)CNC(=O)c1ccccc1 [Compound C, n-benzoyl-glycine hexadecyl ester] | 16.5 | 78.5 | 28 | > 4000 |
| CCCCCCCCCCCCCCCCOC(=O)CN(C)C(C)=O [D, n-acetyl-sarcosine hexadecyl ester] | 9.0 | 86.5 | 20 | – |
| CCCCCCCCCCCCCCCCOC(=O)CNC=O [F, n-formyl-glycine hexadecyl ester] | – | – | 50 | – |
| CCCCCCCCCCCCCCCCOC(=O)CNC(=O)CC [G, n-propionyl-glycine hexadecyl ester] | – | – | 34 | – |
| CCCCCCCCCCCCCC(=O)NCC(=O)O [H, n-tetradecanoyl-glycine] | – | – | 38 | – |
| O=C(O)CCCNC(=O)c1ccc(-c2ccccc2)cc1 [I, n-(4'-phenyl-benzoyl)-4-amino-butyric acid] | – | – | 36 | – |
| CCCCCCCCCCCCCCCCOC(=O)CCNC(C)=O [J, n-acetyl-β-alanine hexadecyl ester] | – | – | 35 | – |
